Measurements reported in PMC8819291, “Adaptively evolved human oral actinomyces‐sourced defensins show therapeutic potential” (EMBO Molecular Medicine, 2021).
Read-outs that look alike come from different tables or passages of the source. Where a SMILES comes first, the peptide text is derived from it. Bridges are numbered along the chain shown (N, C = ends).

Legend:
[1] = system: Methicillin‐resistant coagulase negative Staphylococci P1369; experiment: Inhibition-zone assay (lethal concentration); format: cell-based, Staphylococcus; details: Broth Medium, 37°C
From the text: Bacterial media used here included: Luria‐Bertani (LB) medium, THY medium (30 g Todd Hewitt broth and 5 g Yeast extract per liter), and tryptic soy broth (TSB) (Oxoid, Basingstoke, UK); Broth medium and brain–heart infusion (BHI) medium (Beijing Landbridge technology Limited by Share Ltd., Beijing, China); Potato dextrose (PD) medium (self‐prepared).
In brief, an overnight bacterial culture from a single colony was inoculated into fresh medium and grew to late log‐phase. A 10‐μl aliquot of each culture was diluted in 6‐ml pre‐heated medium containing 0.8% agar. The mixture was spread on a 9‐cm Petri dish, giving a depth of 1 mm. After settling, 3‐mm wells were punched in the plate and then 2‐μl peptide samples of different concentrations were added to each well. The agar plates were incubated overnight at indicated temperatures (Table EV4). A lethal concentration (C L ) was calculated from a plot of d^2 against log n, where d is the diameter (in cm) and n is the amount of sample applied in the well (in nmol). The plot is linear, and thus C L can be calculated from the slope (k) and the intercept (m) of this plot.

[2] = system: SM membrane; experiment: Membrane permeability assay (propidium iodide); format: cell-based, Streptococcus mutans; details: 10 × C L; 5 × 10^5 cells in PBS pH 7.3, 1 μM PI
Protocol: Fluorescence was measured with the F‐4500 FL spectrophotometer (Hitachi High‐Technology Company, Japan).

[3] = system: BM cells (Bacillus megaterium); experiment: Scanning electron microscope observation of cell deformation; format: cell-based; details: 10 × C L, 37°C, 90 min
Protocol: After centrifugation, bacterial pellets were fixed with 2.5% glutaraldehyde for 1 h, followed by washing three times with PBS buffer (pH 7.3). Dehydration was carried out with a series of graded ethanol solutions. Cells were then dried by BAL‐TEC CPD‐030 critical point dryer (Bal‐Tec AG, Balzers, Liechtenstein) before being mounted on carbon tape and sputtered with a gold coating (BAL‐TEC SCD005). Images were visualized in FEI QUANTA 450.

[4] = system: MRSA P1374; experiment: Cytoplasmic accumulation of UMP; format: cell-based, Staphylococcus aureus; details: 20 × C L, 30 min; RP-HPLC, UV 260 nm
Protocol: To analyze the cytoplasmic nucleotide pool, we carried out the cytoplasmic UMP accumulation experiment according to the literature (Brötz et al, [1997]) with some modifications. MRSA P1374 cells were grown in 40‐ml broth medium at 37°C to an OD600 of 0.5. The culture was supplemented with 130 μg/ml chloramphenicol. […] After 30 min of incubation, UMP was extracted from the harvested cells by stirring them into boiling water. The suspension was then centrifuged (43,000 g, 60 min) at 4°C and the supernatant was lyophilized and dissolved in 400 μl of 50 mM ammonium acetate (pH 5.2) and adjusted to pH 2.0 with acetic acid. After acidification, the supernatant was fractionated by RP‐HPLC on Hypersil ODS (250 × 4.6 mm; Thermo Scientific) and UMP was eluted from the column with a linear gradient from 0 to 40% methanol in 50 mM NH4Ac (pH 5.2) within 40 min with a flow rate of 1 ml/min. UV absorbance was monitored at 260 nm. UMP was identified by ultraperformance liquid chromatography–high resolution mass spectrometry (UPLC‐HRMS) and MALDI‐TOF. Both methods yielded consistent results.

[5] = Circular dichroism spectroscopy with UMP; format: binding; details: 50 mM NH4OAc, room temperature
Protocol: The spectra were measured at room temperature from 300 to 200 nm by using a quartz cell of 1.0 mm thickness. Data were collected at 1‐nm intervals with a scan rate of 2 nm/s.

[6] = Bioaffinity ESI-MS with UMP; format: binding, Staphylococcus aureus; details: 25 mM ammonium acetate (pH5.2)
Protocol: All components for interactions were dissolved in 25 mM ammonium acetate (pH5.2). Electrospray spectra were recorded with Waters SynaptG2‐Si mass spectrometer (Waters, Manchester, UK) and measurements were performed with positive ESI in resolution mode. Ions were scanned in a mass range of 500–2,000 m/z with the following conditions: the capillary voltage at 1,500 V; the cone voltage at 40 V; the source block temperature at 30°C. Spectra were recorded and processed by the software Masslynx4.1 (Waters, Manchester, UK).

[7] = system: fresh erythrocytes from the female ICR mice; experiment: Hemolysis assay; format: cell-based, Mus musculus
Protocol: Hemolytic activity of peptides against fresh erythrocytes from the female ICR mice (Mus musculus) (25 g, 6 weeks of age) was assayed according to the standard method (Zhu et al, [2012]). Peptides were diluted with 0.9% NaCl to the indicated concentration. The percentage of hemolysis is determined as (A pep–A blank)/(A tot–A blank) × 100, in which “A” represents absorbance measured at 570 nm. A blank and A pep were evaluated in the absence or presence of peptides. One hundred percent hemolysis (A tot) was obtained in the presence of 1% Triton X‐100.

[8] = system: HEK 293; details: 25 µM (Appendix Fig S14), 72 h, CCK‐8
Protocol: Cells were cultured at 37°C in 5% CO2: 95% air incubator in Minimum Essential Medium (MEM) supplemented with 10% (v/v) fetal bovine serum (FBS). Cells were seeded at a density of 7 × 10^3 cells per well in 96‐well plates and incubated for 24 h. Media were then replaced with 200 μl of media containing various concentrations of peptides. The cells were incubated for 72 h and cytotoxicity was assessed with CCK‐8 Kits (Dojindo Molecular Technologies, Tokyo, Japan). Absorbance was detected at 450 nm with the TECAN Infinite M200 microplate reader (Tecan, Durham, USA).

[9] = system: salmon sperm DNA; details: 1.0 nmol AMSIN + salmon sperm DNA 6.6 mg/ml
Protocol: The rationality behind this experiment is that if a reduction in the inhibition‐zone size in the presence of DNA, it would indicate that the peptide binding to the DNA causes the loss of antibacterial activity. […] Inhibition zones were recorded and compared with the control without the DNA.

[10] = 37°C

CC[C@H](C)[C@@H]1NC(=O)[C@H](CCCCN)NC(=O)CNC(=O)[C@H](CCCNC(=N)N)NC(=O)[C@@H]2CSSC[C@H](NC(=O)CNC(=O)[C@H](Cc3ccccc3)NC(=O)CN)C(=O)N3CCC[C@H]3C(=O)N[C@@H](Cc3c[nH]c4ccccc34)C(=O)N[C@@H](CC(N)=O)C(=O)N[C@@H](C)C(=O)N[C@@H](Cc3ccc(O)cc3)C(=O)N[C@@H](CCC(=O)O)C(=O)N[C@H]3CSSC[C@H](NC(=O)[C@H]([C@@H](C)O)NC(=O)[C@H](CCC(N)=O)NC(=O)[C@H](CCCNC(=N)N)NC1=O)C(=O)N[C@@H](Cc1c[nH]cn1)C(=O)N[C@H](C(=O)N[C@@H](Cc1ccc(O)cc1)C(=O)O)CSSC[C@H](NC(=O)[C@H](Cc1c[nH]cn1)NC(=O)[C@H](CCCNC(=N)N)NC(=O)[C@H](CC(=O)O)NC3=O)C(=O)N[C@@H](C(C)C)C(=O)N[C@@H](CO)C(=O)N[C@@H](CCCCN)C(=O)NCC(=O)N[C@@H](Cc1ccc(O)cc1)C(=O)N[C@@H]([C@@H](C)O)C(=O)NCC(=O)NCC(=O)N[C@@H](CC(N)=O)C(=O)N2 [AMSIN] (H-GFGCPWNAYECDRHCVSKGYTGGNCRGKIRQTCHCY-OH; disulfide 4-25, 11-33, 15-35; N-terminus and C-terminus assumed)
Lethal concentration (C L) [1]: 1.07 µM | Effect on bacterial membrane integrity (propidium iodide fluorescence) [2]: did not impair the integrity of bacterial membrane | Cell shape by scanning electron microscopy [3]: deformation of the cell shape | Cytoplasmic accumulation of UMP [4]: accumulated | Complex with UMP by CD absorption signatures [5]: a complex was formed | Non-covalent complex with UMP by ESI-MS [6]: quadruply protonated complex | Hemolysis (%) ([7]; 6.25 μM, absorbance 570 nm, 100% = 1% Triton X‐100, technical replicate 1): 1.49% | Hemolysis (%) ([7]; 6.25 μM, technical replicate 2): 1.24% | Hemolysis (%) ([7]; 6.25 μM, technical replicate 3): 1.65% | Hemolysis (%) ([7]; 12.5 μM, technical replicate 1): 2.48% | Hemolysis (%) ([7]; 12.5 μM, technical replicate 2): 1.98% | Hemolysis (%) ([7]; 12.5 μM, technical replicate 3): 2.04% | Hemolysis (%) ([7]; 25 μM, technical replicate 1): 6.96% | Hemolysis (%) ([7]; 25 μM, technical replicate 2): 5.2% | Hemolysis (%) ([7]; 25 μM, technical replicate 3): 5.2% | Viability of HEK 293 [8]: did not affect the viability | Inhibition zone ([9]; replicate 1): 9.5 mm | Inhibition zone ([9]; replicate 2): 10 mm | Inhibition zone ([9]; replicate 3): 9.5 mm | Residual antibacterial activity ([10]; 24 h in fresh normal mouse serum without dilution): full antibacterial activity | Activity in serum compared with in H2O ([10]; undiluted mouse serum, 48‐h study period): slight decrease
